Measured values published in patent US20080070875A1, “Acne treatment compositions and methods of use” (priority 2006, published 2008).
Read-outs that look alike come from different tables or passages of the source.

Tested on: P. acnes (MicroBiologics, ATCC #11827)
Assay: Minimal inhibitory concentration (MIC) against P. acnes, serial dilution in thioglycollate broth
Type: cell-based, Propionbacterium acnes
Details: for MIC: Cutibacterium acnes
Description: The objective of this example was to establish the minimal inhibitory concentration (MIC) of quercetin (Q), rosmarinic acid (RA), triclosan (T) and salicylic acid (SA) towards the bacterium P. acnes. Combinations of quercetin with rosmarinic acid 1:1 (Q+RA) and quercetin with salicylic acid (1:1) (Q+SA) were also tested.
The following methods were used in this example. P. acnes (MicroBiologics, ATCC #11827, batch #419697) was inoculated at 3 different dilutions and grown on blood agar plates for 3 days in anaerobic condition at 37 C. About 10 colonies were than suspended in thioglycollate broth in order to achieve the density equivalent to 0.5 McFarland standard. Test materials were dissolved in the thioglycollate broth at following concentrations:
The antimicrobial effect of the test samples was assayed by making serial dilutions for each material or the 1:1 combination thereof, followed by anaerobic incubation with bacterial agent in thioglycollate brothin a 96 well plate, at the initial density of 5×10^5 CFU/ml (0.001 McFarland standard). MIC was determined visually after 84 hours and confirmed by spectrophotometry at 405 nm with the BioRad 3550-UV microplate reader, using media with respective test materials without bacteria for background subtraction.

[1] = ATCC11827, anaerobic incubation in thioglycollate broth, 84 hours, visual, confirmed at 405 nm, read-out: MIC
[2] = anaerobic incubation in thioglycollate broth, 84 hours

Structure (SMILES) | MIC [1] [µg/mL] | MIC (%) [2] [%] | activity towards inhibiting P. acnes (result in words) | activity towards inhibiting P. acnes in the presence of salicylic acid (in the presence of salicylic acid (1:1), result in words) | MIC (ATCC11827, 84 h) [µg/mL]
O=C(O)c1ccccc1O [SA, 2-Hydroxybenzoic acid, reference compound] | > 2000 | 2 |  |  | 
O=C(/C=C/c1ccc(O)c(O)c1)O[C@H](Cc1ccc(O)c(O)c1)C(=O)O [RA] | 30 | 0.003 | significant activity |  | 
O=c1c(O)c(-c2ccc(O)c(O)c2)oc2cc(O)cc(O)c12 [Q, 2-(3,4-dihydroxyphenyl)-3,5,7-trihydroxy-4H-1-benzopyran-4-one] | 30 | 0.003 | significant activity | maintained activity | 
Oc1cc(Cl)ccc1Oc1ccc(Cl)cc1Cl [T, triclosan, reference compound] |  | 0.4 |  |  | 400
